The text below walks through data of US10385050B2, “Indolin-2-one and 1,3-dihydro-pyrrolo[3,2-c]pyridin-2-one derivatives” (Hoffmann-La Roche Inc., priority 2014, dated 2019).

By inhibition in vivo is commonly meant the change of the read-out against control, counted positive when it falls.

The experiment relates to L-687,414-induced hyperlocomotion. Nature of the experiment: Reversal of L-687,414-induced hyperlocomotion (Digiscan locomotor activity). In kind it is in vivo, mouse. The following applies: for Inhibition, ip / inhibition in vivo at 30 mg/kg: dose ip 30 mg/kg at the same time as s.c. 50 mg/kg L-687,414, horizontal activity over 30 min; for ID50 po: dose producing 50% inhibition of L-687,414-induced hyperlocomotion, p.o. 15 min before s.c. 50 mg/kg L-687,414, doses 1-3-10 (Expl. 2: 3-10-30) mg/kg; for inhibition in vivo at 30 mg/kg: Mus musculus, 0.5 h. The text has this:
The authors described that hyperlocomotion induced by L-687,414 was inhibited by a series of known antipsychotic drugs. […] These findings predict antipsychotic activity for the present compounds, making them useful for the treatment of positive (psychosis) and negative symptoms of schizophrenia, substance abuse, alcohol and drug addiction, obsessive-compulsive disorders, cognitive impairment, bipolar disorders, mood disorders, major depression, resistant depression, anxiety disorders, Alzheimer's disease, autism, Parkinson's disease, chronic pain, borderline personality disorder, sleep disturbances, chronic fatigue syndrome, stiffness, antiinflammatory effects in arthritis and balance problems.
The described compounds of formula I reduce L-687,414-induced hyperlocomotion. This was assessed by using a computerized Digiscan 16 Animal Activity Monitoring System (Omnitech Electronics, Columbus, Ohio) to quantify locomotor activity. Animals were kept under a 12 h light/dark cycle and experiments were performed during the light period. Each activity monitoring chamber consisted of a Plexiglas box (41×41×28 cm; W×L×H) with sawdust bedding on the floor surrounded by invisible horizontal and vertical infrared sensor beams. The test boxes were divided by a Plexiglas cross providing each mouse with 20×20 cm of moving space. Cages were connected to a Digiscan Analyzer linked to a computer that constantly collected the beam status information. Records of photocell beam interruptions for individual animals were taken every 5 min over the duration of the experimental session and the sum of the first 6 periods was used as the final parameter. Compounds were administered either p.o. 15 min before a s.c. injection of 50 mg/kg of L-687,414, or i.p. at the same time as a s.c. injection of 50 mg/kg of L-687,414. Mice were then transferred from their home cage to the recording chambers for a 15-min habituation phase allowing free exploration of the new environment. Horizontal activity was then recorded for a 30-min time period. The % inhibition of L-687,414-induced hyperlocomotion was calculated according to the equation: ((Veh+L-687,414 horizontal activity−drug+L-687,414 horizontal activity)/Veh+L−687,414 horizontal activity)×100
ID50 values, defined as doses of each compound producing 50% inhibition of L-687,414-induced hyperlocomotion, were calculated by linear regression analysis of a dose-response data using an Excel-based computer-fitting program.
As data was not presupposed to be normally distributed, groups treated with test compounds were statistically compared with the control (vehicle-treated) group using one-tailed Mann Whitney U tests. In statistics, the Mann-Whitney U test (also called the Mann-Whitney-Wilcoxon (MWW) or Wilcoxon rank-sum test) is a non-parametric statistical hypothesis test for assessing whether one of two samples of independent observations tends to have larger values than the other. It is one of the most well-known non-parametric significance tests. […] P values given in table 1 are one-tailed since only decreases in locomotion were expected and tested for (Mann, H. B., Whitney, D. R. (1947), “On a Test of Whether one of Two Random Variables is Stochastically Larger than the Other”, Annals of Mathematical Statistics, 18 (1), 50-60).

As for “1,3,3-Trimethyl-6-(3-pyridin-4-yl-isoxazol-5-yl)-1,3-dihydro-indol-2-one [Example 42]”, the “Inhibition, ip” value stood at 58.4%.
Same read-out and setting: for “1,3,3-Trimethyl-6-(4-(pyridin-3-yl)-1H-imidazol-1-yl)indolin-2-one [Example 29]” the value was 80.3%; for “1-Cyclopropyl-3,3-dimethyl-6-(2-(2-methylpyridin-4-yl)oxazol-5-yl)indolin-2-one [Example 12]”, 49.1%; for “3,3-Dimethyl-6-[1-(2-methyl-4-pyridyl)imidazol-4-yl]-1-(2-methylpyrimidin-5-yl)indolin-2-one [Example 113]”, 69.9%.
Turning to “6-[1-(3-Fluoro-4-pyridyl)imidazol-4-yl]-3,3-dimethyl-1-(2-methylpyrimidin-5-yl)indolin-2-one [Example 110]”, the “Inhibition, ip” value was found to be 85.4%.
`CN1C(=O)C(C)(C)c2ccc(-c3ncc(-c4ccccc4)[nH]3)cc21` [Example 2, 1,3,3-Trimethyl-6-(5-phenyl-1H-imidazol-2-yl)indolin-2-one]: the ID50 po came out at 10.71 mg/kg.
Consider `CN1C(=O)C(C)(C)c2ccc(-c3cnc(-c4ccncc4)[nH]3)cc21` [Example 3, 1,3,3-Trimethyl-6-(2-(pyridin-4-yl)-1H-imidazol-5-yl)indolin-2-one], for which the inhibition in vivo at 30 mg/kg was determined as 58.9%.
`CN1C(=O)C(C)(C)c2ccc(-c3cnc(-c4cccnc4)o3)cc21` [Example 7, 1,3,3-Trimethyl-6-(2-(pyridin-3-yl)oxazol-5-yl)indolin-2-one]: the inhibition in vivo at 30 mg/kg amounted to 83.9%.
Take `CC1(C)C(=O)N(C2CC2)c2cc(-c3cnc(-c4cccnc4)o3)ccc21` [Example 8, 1-Cyclopropyl-3,3-dimethyl-6-(2-(pyridin-3-yl)oxazol-5-yl)indolin-2-one]: the inhibition in vivo at 30 mg/kg amounted to 80.5%.
Same read-out and setting: under `CC1(C)C(=O)N(C2CC2)c2cc(-c3cnc(-c4ccncc4)o3)ccc21` [Example 10, 1-Cyclopropyl-3,3-dimethyl-6-(2-(pyridin-4-yl)oxazol-5-yl)indolin-2-one] stands 78.8%.
On the same count and under the same terms, for `CC1(C)C(=O)N(C2COC2)c2cc(-c3nnc(-c4ccncc4)o3)ccc21` [Example 11, 3,3-Dimethyl-1-(oxetan-3-yl)-6-(5-(pyridin-4-yl)-1,3,4-oxadiazol-2-yl)indolin-2-one] the value was 80.9%; for `Cc1cc(-c2cnc(-c3ccc4c(c3)N(C3CC3)C(=O)C4(C)C)o2)ccn1` [Example 19, 1-Cyclopropyl-3,3-dimethyl-6-(5-(2-methylpyridin-4-yl)oxazol-2-yl)indolin-2-one], 55.9%.
Same read-out and setting: for `CN1C(=O)C(C)(C)c2ccc(-n3cnc(-c4ccncc4)c3)cc21` [Example 20, 1,3,3-Trimethyl-6-(4-(pyridin-4-yl)-1H-imidazol-1-yl)indolin-2-one] the value was 64.4%; for `Cc1cc(-c2ncc(-c3ccc4c(c3)N(C)C(=O)C4(C)C)o2)ccn1` [Example 22, 1,3,3-Trimethyl-6-(2-(2-methylpyridin-4-yl)oxazol-5-yl)indolin-2-one], 55.9%.
In the case of `Cc1ccc(-c2ncc(-c3ccc4c(c3)N(C3CC3)C(=O)C4(C)C)o2)cn1` [Example 33, 1-Cyclopropyl-3,3-dimethyl-6-(2-(6-methylpyridin-3-yl)oxazol-5-yl)indolin-2-one], the ID50 po was determined as 3.36 mg/kg.
Consider `CN1C(=O)C(C)(C)c2ccc(-n3cc(-c4cccnc4)cn3)cc21` [Example 41, 1,3,3-Trimethyl-6-(4-(pyridin-3-yl)-1H-pyrazol-1-yl)indolin-2-one], for which the inhibition in vivo at 30 mg/kg was determined as 50.3%.
On the same count and under the same terms, for `CC1(C)C(=O)N(C2COC2)c2cc(-n3cc(-c4cccnc4)cn3)ccc21` [Example 43, 3,3-Dimethyl-1-(oxetan-3-yl)-6-(4-(pyridin-3-yl)-1H-pyrazol-1-yl)indolin-2-one] the value was 47.3%; for `CN1C(=O)C(C)(C)c2ccc(-c3coc(-c4cccnc4)n3)cc21` [Example 44, 1,3,3-Trimethyl-6-(2-(pyridin-3-yl)oxazol-4-yl)indolin-2-one], 52.1%.
On to `Cc1cc(-c2nnc(-c3ccc4c(c3)N(C3COC3)C(=O)C4(C)C)o2)ccn1` [Example 49, 3,3-Dimethyl-6-(5-(2-methylpyridin-4-yl)-1,3,4-oxadiazol-2-yl)-1-(oxetan-3-yl)indolin-2-one], for which the ID50 po is 5.02 mg/kg.
On to `CN1C(=O)C(C)(C)c2ccc(-c3cnn(-c4cccnc4)c3)cc21` [Example 50, 1,3,3-Trimethyl-6-(1-(pyridin-3-yl)-1H-pyrazol-4-yl)indolin-2-one], for which the inhibition in vivo at 30 mg/kg came out at 44%.
Still for that read-out and setting: for `CC1(C)C(=O)Nc2cc(-n3cc(-c4cccnc4)cn3)ccc21` [Example 51, 3,3-Dimethyl-6-(4-(pyridin-3-yl)-1H-pyrazol-1-yl)indolin-2-one] the value was 61%; for `CC1(C)C(=O)N(C2CC2)c2cc(-n3cc(-c4cccnc4)cn3)ccc21` [Example 52, 1-Cyclopropyl-3,3-dimethyl-6-(4-(pyridin-3-yl)-1H-pyrazol-1-yl)indolin-2-one], 82.1%; for `Cc1cc(-c2cnn(-c3ccc4c(c3)N(C)C(=O)C4(C)C)c2)ccn1` [Example 54, 1,3,3-Trimethyl-6-(4-(2-methylpyridin-4-yl)-1H-pyrazol-1-yl)indolin-2-one], 41.6%.
The same measure, in the same setting: for `Cc1cc(-c2cnn(-c3ccc4c(c3)N(C3CC3)C(=O)C4(C)C)c2)ccn1` [Example 55, 1-Cyclopropyl-3,3-dimethyl-6-(4-(2-methylpyridin-4-yl)-1H-pyrazol-1-yl)indolin-2-one] the value was 42.7%.
Same read-out and setting: for `CN1C(=O)C(C)(C)c2ccc(-n3cc(-c4ccncc4)nn3)cc21` [Example 57, 1,3,3-Trimethyl-6-(4-(pyridin-4-yl)-1H-1,2,3-triazol-1-yl)indolin-2-one] the value was 89.2%; for `COc1cnccc1-c1ncc(-c2ccc3c(c2)NC(=O)C3(C)C)o1` [Example 63, 6-(2-(3-Methoxypyridin-4-yl)oxazol-5-yl)-3,3-dimethylindolin-2-one], 75%.
Consider `Cc1ccc(-c2cnn(-c3ccc4c(c3)N(C3CC3)C(=O)C4(C)C)c2)cn1` [Example 69, 1-Cyclopropyl-3,3-dimethyl-6-(4-(6-methylpyridin-3-yl)-1H-pyrazol-1-yl)indolin-2-one], for which the inhibition in vivo at 30 mg/kg is 53.3%.
`CN1C(=O)C(C)(C)c2ccc(-c3cn(-c4ccncc4F)cn3)cc21` [Example 73, 6-(1-(3-Fluoropyridin-4-yl)-1H-imidazol-4-yl)-1,3,3-trimethylindolin-2-one]: the ID50 po is recorded as 2.97 mg/kg.
For `Cc1cc(-n2cnc(-c3ccc4c(c3)N(C3CC3)C(=O)C4(C)C)c2)ccn1` [Example 74, 1-Cyclopropyl-3,3-dimethyl-6-(1-(2-methylpyridin-4-yl)-1H-imidazol-4-yl)indolin-2-one], the inhibition in vivo at 30 mg/kg came out at 71.4%.
For the compound `CC1(C)C(=O)N(C2CC2)c2cc(-c3cn(-c4ccncc4F)cn3)ccc21` [Example 76, 1-Cyclopropyl-6-(1-(3-fluoropyridin-4-yl)-1H-imidazol-4-yl)-3,3-dimethylindolin-2-one], the ID50 po is less than 1 mg/kg.
Turning to `Cc1nc(-c2ccc3c(c2)N(C)C(=O)C3(C)C)cn1-c1ccncc1` [Example 77, 1,3,3-Trimethyl-6-(2-methyl-1-(pyridin-4-yl)-1H-imidazol-4-yl)indolin-2-one], the inhibition in vivo at 30 mg/kg stood at 89.4%.
The same measure, in the same setting: for `Cc1ccc(-c2cc(-c3ccc4c(c3)N(C)C(=O)C4(C)C)n[nH]2)cn1` [Example 80, 1,3,3-Trimethyl-6-(5-(6-methylpyridin-3-yl)-1H-pyrazol-3-yl)indolin-2-one] the value was 62.6%.
Regarding `Cc1cnccc1-n1cnc(-c2ccc3c(c2)N(C)C(=O)C3(C)C)c1` [Example 88, 1,3,3-Trimethyl-6-(1-(3-methylpyridin-4-yl)-1H-imidazol-4-yl)indolin-2-one], the inhibition in vivo at 30 mg/kg came out at 93.1%.
